Assay results taken from publication PMC7268545, “Development of a QPatch-Automated Electrophysiology Assay for Identifying TMEM16A Small-Molecule Inhibitors” (Assay and Drug Development Technologies, 2020).
Read-outs that look alike come from different tables or passages of the source.

Tests used:
[1] = target: T1, human ANO1 channel (isoform acd) (Homo sapiens, UniProt Q5XXA6); assay: QPatch-48 automated whole-cell electrophysiology, cumulative five-concentration single-addition protocol; assay type: cell-based
T1 construct: host or cells: HEK293T
T1 sequence (Q5XXA6 1-986): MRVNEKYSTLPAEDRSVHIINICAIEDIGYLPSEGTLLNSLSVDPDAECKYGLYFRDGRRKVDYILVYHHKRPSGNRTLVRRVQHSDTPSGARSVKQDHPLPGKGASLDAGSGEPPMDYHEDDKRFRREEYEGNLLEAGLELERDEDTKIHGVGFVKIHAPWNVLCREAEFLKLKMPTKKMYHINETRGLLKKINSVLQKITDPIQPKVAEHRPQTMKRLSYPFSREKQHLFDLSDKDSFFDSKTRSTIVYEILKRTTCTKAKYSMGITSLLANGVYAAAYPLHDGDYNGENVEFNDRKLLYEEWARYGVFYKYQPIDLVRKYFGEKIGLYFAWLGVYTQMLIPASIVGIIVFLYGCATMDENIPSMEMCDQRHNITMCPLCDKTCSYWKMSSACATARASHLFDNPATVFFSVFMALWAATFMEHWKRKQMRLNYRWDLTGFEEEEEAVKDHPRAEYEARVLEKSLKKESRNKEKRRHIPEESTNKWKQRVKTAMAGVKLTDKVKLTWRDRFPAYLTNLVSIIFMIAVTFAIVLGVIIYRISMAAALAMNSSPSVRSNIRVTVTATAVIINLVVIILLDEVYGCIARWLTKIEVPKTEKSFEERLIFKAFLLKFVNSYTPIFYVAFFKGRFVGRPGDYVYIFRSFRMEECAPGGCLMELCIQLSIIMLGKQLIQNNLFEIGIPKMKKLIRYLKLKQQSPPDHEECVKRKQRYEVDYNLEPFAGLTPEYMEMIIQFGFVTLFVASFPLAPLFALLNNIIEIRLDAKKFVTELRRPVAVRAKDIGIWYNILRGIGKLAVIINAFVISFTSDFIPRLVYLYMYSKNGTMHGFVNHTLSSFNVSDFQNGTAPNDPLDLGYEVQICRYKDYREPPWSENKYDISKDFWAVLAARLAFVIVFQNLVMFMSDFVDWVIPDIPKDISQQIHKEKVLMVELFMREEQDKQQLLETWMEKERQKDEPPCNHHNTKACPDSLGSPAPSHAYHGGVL
Description: HEK293T cells stably expressing the human ANO1 channel (isoform acd) were obtained from Scottish Biomedical. Cells were cultured in Sigma Minimum Essential Media containing 10% heat-inactivated fetal bovine serum, 1% penicillin/streptomycin, 1% glutamine, and […] geneticin. Cells were maintained in a 37°C, 5% CO2 environment. Cells were passaged every 3 days after they had reached ∼70% confluency and were not allowed to reach a density greater than 1–2 × 10^5 cells/cm^2 during routine culture. When subculturing, cells were rinsed once with room temperature 1 × phosphate-buffered saline (PBS; Ca^2+/Mg^2+ free), lifted with TrypLE Express, resuspended in prewarmed growth media, and counted using a hemocytometer. Cells were then plated in T150 flasks at a density of 2.9 × 10^4 cells/cm^2 to be either used in the assay or subcultured 72 h later.
On the day of the experiment, cells plated at a density of 2.9 × 10^4 cells/cm^2 72 h prior should be ∼70%–80% confluent. After cells were rinsed with prewarmed 1 × PBS (Ca^2+/Mg^2+ free), 3 mL of room temperature Detachin solution (Genlantis) was added to the flask and tilted gently two to three times to cover all the cells. Approximately 2 mL of Detachin was aspirated from the flask, leaving 1 mL on the cells, and then placed in the 37°C incubator for 5 min. Once cells had rounded up, the cells were dislodged by tapping the flask gently. The cells were then resuspended in 5 mL of warm serum-free media (EX-CELL ACF CHO Medium; Sigma; supplemented with 4 mM L-glutamine and 10 mM HEPES). A glass Pasteur pipette with a rubber bulb was then used to gently dissociate the cells from one another. Detachin will often leave cells as doublets or clumps, conditions that will disrupt seal formation on the QPatch. The cells were triturated ∼30 times and then, still using the Pasteur pipette, transferred into the QPatch Cell Hotel. This ensures that cells detach from one another leaving a suspension of single cells. A QStirrer was added to the Cell Hotel and the cell suspension was immediately placed on the QPatch device. Cells were utilized within 15 min.
Compounds were reconstituted in dimethyl sulfoxide (DMSO; Sigma) as 10 mM stock solutions. An automated dilution machine set up the microtiter plate (MTP ) by making 1:5 dilutions from a starting concentration of 30 μM. The concentration of DMSO was equal for all concentrations tested. Each MTP contained one row of a negative control (DMSO) and a positive control (benzbromarone). A total of eight compounds were run at a time. All compounds tested were produced in-house.
Whole-cell patch-clamp experiments were performed on a QPatch-48-automated electrophysiology platform (Sophion Biosciences) using the 48-channel, single-hole QPlate (resistance 2.0 ± 0.4 MΩ). The external buffer (in mM) was 140 NaCl, 4 KCl, 2 CaCl2, 1 MgCl2, 10 HEPES, 10 glucose, pH 7.4 (osmolarity = 300), and the internal buffer (in mM) was 110 CsCl, 20 TEA-Cl, 5.374 CaCl2, 1.75 MgCl2, 10 EGTA, 10 HEPES, 4 Na2ATP, pH 7.2 (osmolarity = 310). Cell positioning was set to a 5-s wait time with a positioning pressure of −60 mbar and a positioning time-out of 60 s. Resistance was set to increase 750% to ensure the success of positioning. To obtain a seal, pressure was increased to −70 mbar with an allowed pressure of −130 to −20 mbar and a holding pressure of −20 mbar. The holding potential was set to −70 mV and a 240-s time-out was set. The minimum seal resistance was set to 0.02 GΩ. To go whole cell, five 1-s suction pulses were applied starting at −180 mbar and increasing with −40 mbar increments with a pulse period of 10 s. Suction ramp and voltage zap protocols were kept standard, according to the default HEK cell settings. […] The suction ramp order of use was set to 2 with a ramp amplitude of −450 mbar and a ramp slope of 100 ms/mbar.
Once established in whole-cell configuration, cells are clamped to a holding potential (Vhold) of 0 mV.

TMEM16A [2] = target: T2, TMEM16A (Homo sapiens, UniProt Q5XXA6); assay: fluorescence-based eYFP-quench assay; assay type: cell-based; settings: iodide based assay
T2 construct: expressed in transfected cells; host or cells: HEK293T-derived, doxycycline-inducible
T2 sequence (Q5XXA6 1-986): T1 sequence (Q5XXA6 1-986)
Description: This was possibly due to the eYFP assay being iodide based, since it has been reported that the anion passing through the pore has an effect on the open state of the channel.[12] It is also impossible to control the intracellular calcium level in this assay, which could explain the discrepancy in potency.[37] […] There is clearly a need for an automated electrophysiology assay for TMEM16A, whether looking at activators or inhibitors. TMEM16A has proven to be a difficult channel for electrophysiology, owing to its fast rundown, small currents, and the fact that it is a ligand-gated channel. In addition, fluoride, typically used in automated patch-clamp assays to improve seal quality, is known to decrease calcium salt solubility. Therefore, a fluoride-free internal solution is preferable when trying to control for a precise internal calcium concentration.

[3] = set-up: method as in PMID 28493701; settings: cited from earlier work
TMEM16A [4] = target: T2, TMEM16A; set-up: method as in PMID 24642630; settings: read-out: reported IC50; cited from earlier work
[5] = independent experiment 1, block at +100 mV, 250 nM internal free-calcium, read-out: IC50s for independent experiments 1
[6] = independent experiment 2, read-out: IC50s for independent experiments 2
[7] = independent experiment 3, read-out: IC50s for independent experiments 3
[8] = independent experiment 4, read-out: IC50s for independent experiments 4

IC50 [1, 5]	IC50 [1, 6]	IC50 [1, 7]	IC50 [1, 8]	Compound	also measured
1.18 µM	0.85 µM	1.1 µM	1.57 µM	N#Cc1c(C(F)(F)F)cc(O)n2c1nc1ccccc12 [1PBC]	potency relative to that reported ([1]; versus reported value, ref 36 (mouse TMEM16A)): ~10 times; inhibition in eYFP-quench assay (TMEM16A [2]): 40%
–	–	–	–	CCc1c(C)nc(SCC(=O)Nc2nc(-c3ccc(OC)cc3)cs2)[nH]c1=O [T16Ainh-A01]	block of current ([1]; maximum block seen): ≤ 40%
–	–	–	–	COc1ccccc1/C=N/NC(=O)COc1ccc(Cl)cc1C [Ani9]	metabolic stability [3]: metabolically unstable
5.29 µM	4.62 µM	8.45 µM	11.1 µM	O=C(O)c1cccnc1Nc1cccc(C(F)(F)F)c1 [Niflumic acid]	IC50 ([1]; full plate format (with rundown), n = 3, read-out: IC50, full plate): 3.89 ± 0.11 µM; IC50 ([1]; independent experiment 5, read-out: IC50s for independent experiments 5): 7.71 µM; effect on deactivation rate ([1]; tail current deactivation): slower deactivation rate; IC50 (TMEM16A [4]): 12 µM
